# Test results taken from paper PMC10905675, “INX-315, a Selective CDK2 Inhibitor, Induces Cell Cycle Arrest and Senescence in Solid Tumors” (Cancer Discovery, 2023).
# Legend:
# Assay in all cases: SelectScreen ZLYTE
# Assay type in all cases: biochemical
# Settings in all cases: INX-0315 at 100nM
# [1] = target: T1, ABL1 F317L (Homo sapiens, UniProt P00519, F317L)
# T1 construct: purchased Thermo Fisher Scientific SelectScreen (plus Nanosyn / Reaction Biology for CDK/cyclin lines)
# How it was run: (§1)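 A single-dose pass at 100 nmol/L INX-315 in 1% DMSO came first. Curves of 10 points from 1 µmol/L to 0.0495 nmol/L followed, using standard predetermined assay settings.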
# [2] = target: T2, ABL1 G250E (Homo sapiens, UniProt P00519, G250E)
# T2 construct: purchased Thermo Fisher Scientific SelectScreen (plus Nanosyn / Reaction Biology for CDK/cyclin lines)
# How it was run: as §1
# [3] = target: T3, ACVR1B (ALK4) (Homo sapiens, UniProt P36896)
# T3 construct: purchased Thermo Fisher Scientific SelectScreen (plus Nanosyn / Reaction Biology for CDK/cyclin lines)
# How it was run: as §1
# [4] = target: T4, AKT3 (PKB gamma) (Homo sapiens, UniProt Q9Y243)
# T4 construct: purchased Thermo Fisher Scientific SelectScreen (plus Nanosyn / Reaction Biology for CDK/cyclin lines)
# T4 sequence (Q9Y243 whole entry): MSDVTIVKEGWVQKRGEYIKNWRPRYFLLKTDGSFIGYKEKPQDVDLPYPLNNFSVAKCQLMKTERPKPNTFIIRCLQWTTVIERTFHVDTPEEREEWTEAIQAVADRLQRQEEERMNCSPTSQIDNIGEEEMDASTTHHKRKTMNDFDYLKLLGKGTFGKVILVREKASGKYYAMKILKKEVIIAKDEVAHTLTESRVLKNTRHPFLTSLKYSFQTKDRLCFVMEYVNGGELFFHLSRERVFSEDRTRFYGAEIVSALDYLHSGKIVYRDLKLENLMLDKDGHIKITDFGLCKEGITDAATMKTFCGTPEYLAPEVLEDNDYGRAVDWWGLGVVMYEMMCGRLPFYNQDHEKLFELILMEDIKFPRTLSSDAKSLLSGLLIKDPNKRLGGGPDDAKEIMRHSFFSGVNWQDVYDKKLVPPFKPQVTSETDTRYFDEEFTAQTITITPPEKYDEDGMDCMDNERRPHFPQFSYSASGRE
# How it was run: as §1
# [5] = target: T5, AMPK (A1/B2/G3) (Homo sapiens, UniProt Q13131)
# T5 construct: purchased Thermo Fisher Scientific SelectScreen (plus Nanosyn / Reaction Biology for CDK/cyclin lines)
# How it was run: as §1
# [6] = target: T6, BTK (Homo sapiens, UniProt Q06187)
# T6 construct: purchased Thermo Fisher Scientific SelectScreen (plus Nanosyn / Reaction Biology for CDK/cyclin lines)
# How it was run: as §1
# [7] = target: T7, CAMK2A (CaMKII alpha) (Homo sapiens, UniProt Q9UQM7)
# T7 construct: purchased Thermo Fisher Scientific SelectScreen (plus Nanosyn / Reaction Biology for CDK/cyclin lines)
# T7 sequence (Q9UQM7 whole entry): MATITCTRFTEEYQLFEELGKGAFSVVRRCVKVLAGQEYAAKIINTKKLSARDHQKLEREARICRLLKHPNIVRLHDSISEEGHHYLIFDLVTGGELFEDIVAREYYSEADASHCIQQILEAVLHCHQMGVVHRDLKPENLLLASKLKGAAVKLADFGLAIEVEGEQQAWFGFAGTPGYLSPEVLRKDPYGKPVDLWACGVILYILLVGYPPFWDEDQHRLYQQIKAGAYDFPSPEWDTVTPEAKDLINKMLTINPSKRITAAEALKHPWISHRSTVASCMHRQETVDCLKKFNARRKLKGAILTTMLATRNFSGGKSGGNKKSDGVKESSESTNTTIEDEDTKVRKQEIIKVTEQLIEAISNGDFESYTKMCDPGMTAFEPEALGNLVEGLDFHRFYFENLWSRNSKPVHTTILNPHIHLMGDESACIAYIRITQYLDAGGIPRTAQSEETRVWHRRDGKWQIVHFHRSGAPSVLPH
# How it was run: as §1
# [8] = target: T8, CAMK2D (CaMKII delta) (Homo sapiens, UniProt Q13557)
# T8 construct: purchased Thermo Fisher Scientific SelectScreen (plus Nanosyn / Reaction Biology for CDK/cyclin lines)
# T8 sequence (Q13557 whole entry): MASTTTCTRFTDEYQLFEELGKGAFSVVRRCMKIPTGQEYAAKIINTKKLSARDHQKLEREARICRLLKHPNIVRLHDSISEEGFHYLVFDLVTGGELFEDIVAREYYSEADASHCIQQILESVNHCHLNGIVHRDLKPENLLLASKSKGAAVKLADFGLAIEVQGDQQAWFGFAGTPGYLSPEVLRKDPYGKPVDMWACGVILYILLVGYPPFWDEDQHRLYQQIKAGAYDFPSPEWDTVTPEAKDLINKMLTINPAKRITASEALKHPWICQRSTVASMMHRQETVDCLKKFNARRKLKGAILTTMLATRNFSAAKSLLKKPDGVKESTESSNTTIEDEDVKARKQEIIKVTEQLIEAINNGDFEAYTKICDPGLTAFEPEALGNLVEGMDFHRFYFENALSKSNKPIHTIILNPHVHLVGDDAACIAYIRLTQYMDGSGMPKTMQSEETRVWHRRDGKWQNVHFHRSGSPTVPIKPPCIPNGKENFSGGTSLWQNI
# How it was run: as §1
# [9] = target: T9, CDKL5 (Homo sapiens, UniProt O76039)
# T9 construct: purchased Thermo Fisher Scientific SelectScreen (plus Nanosyn / Reaction Biology for CDK/cyclin lines)
# How it was run: as §1
# [10] = target: T10, CSNK1A1 (CK1 alpha 1) (Homo sapiens, UniProt P48729)
# T10 construct: purchased Thermo Fisher Scientific SelectScreen (plus Nanosyn / Reaction Biology for CDK/cyclin lines)
# How it was run: as §1
# [11] = target: T11, EGFR (ErbB1) T790M C797S L858R (Homo sapiens, UniProt P00533, C797S/L858R/T790M)
# T11 construct: purchased Thermo Fisher Scientific SelectScreen (plus Nanosyn / Reaction Biology for CDK/cyclin lines)
# How it was run: as §1
# [12] = target: T12, FGFR3 K650E (Homo sapiens, UniProt P22607, K650E)
# T12 construct: purchased Thermo Fisher Scientific SelectScreen (plus Nanosyn / Reaction Biology for CDK/cyclin lines)
# How it was run: as §1
# [13] = target: T13, FLT3 (Homo sapiens, UniProt P36888)
# T13 construct: purchased Thermo Fisher Scientific SelectScreen (plus Nanosyn / Reaction Biology for CDK/cyclin lines)
# How it was run: as §1
# [14] = target: T14, FLT3 D835Y (Homo sapiens, UniProt P36888, D835Y)
# T14 construct: purchased Thermo Fisher Scientific SelectScreen (plus Nanosyn / Reaction Biology for CDK/cyclin lines)
# How it was run: as §1
# [15] = target: T15, FYN (Homo sapiens, UniProt P06241)
# T15 construct: purchased Thermo Fisher Scientific SelectScreen (plus Nanosyn / Reaction Biology for CDK/cyclin lines)
# How it was run: as §1
# [16] = target: T16, ITK (Homo sapiens, UniProt Q08881)
# T16 construct: purchased Thermo Fisher Scientific SelectScreen (plus Nanosyn / Reaction Biology for CDK/cyclin lines)
# How it was run: as §1
# [17] = target: T17, KIT V559D V654A (Homo sapiens, UniProt P10721, V559D/V654A)
# T17 construct: purchased Thermo Fisher Scientific SelectScreen (plus Nanosyn / Reaction Biology for CDK/cyclin lines)
# T17 sequence (P10721 26-976 V559D/V654A): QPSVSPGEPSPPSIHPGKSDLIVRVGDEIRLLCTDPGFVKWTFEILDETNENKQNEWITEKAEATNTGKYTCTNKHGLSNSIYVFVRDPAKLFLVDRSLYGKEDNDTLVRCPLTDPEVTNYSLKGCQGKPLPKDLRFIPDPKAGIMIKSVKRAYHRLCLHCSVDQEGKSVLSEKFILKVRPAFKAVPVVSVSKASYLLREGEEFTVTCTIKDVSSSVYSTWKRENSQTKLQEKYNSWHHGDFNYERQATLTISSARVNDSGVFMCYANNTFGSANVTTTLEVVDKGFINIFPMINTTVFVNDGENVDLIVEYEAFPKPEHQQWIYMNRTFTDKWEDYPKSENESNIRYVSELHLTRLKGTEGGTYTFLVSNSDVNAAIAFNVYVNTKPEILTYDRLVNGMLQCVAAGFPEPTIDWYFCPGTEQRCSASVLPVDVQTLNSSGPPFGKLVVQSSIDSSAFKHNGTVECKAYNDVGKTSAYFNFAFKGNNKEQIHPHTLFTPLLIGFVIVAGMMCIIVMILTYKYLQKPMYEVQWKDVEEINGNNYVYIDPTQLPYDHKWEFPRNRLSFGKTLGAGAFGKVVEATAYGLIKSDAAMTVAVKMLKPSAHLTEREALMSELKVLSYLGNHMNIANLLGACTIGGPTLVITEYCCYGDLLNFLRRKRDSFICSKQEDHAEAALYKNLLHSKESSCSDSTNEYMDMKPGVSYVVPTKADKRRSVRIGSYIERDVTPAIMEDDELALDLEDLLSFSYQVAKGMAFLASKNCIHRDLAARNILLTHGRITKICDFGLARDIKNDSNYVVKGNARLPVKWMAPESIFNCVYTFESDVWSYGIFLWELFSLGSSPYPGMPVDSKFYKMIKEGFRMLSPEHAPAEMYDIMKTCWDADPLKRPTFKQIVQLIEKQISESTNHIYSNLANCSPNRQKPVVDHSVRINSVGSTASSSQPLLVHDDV
# How it was run: as §1
# [18] = target: T18, KIT V560G (Homo sapiens, UniProt P10721, V560G)
# T18 construct: purchased Thermo Fisher Scientific SelectScreen (plus Nanosyn / Reaction Biology for CDK/cyclin lines)
# T18 sequence (P10721 26-976 V560G): as the sequence (P10721 26-976 V559D/V654A) above, with D534V, V535G, A629V counted along it
# How it was run: as §1
# [19] = target: T19, KSR2 (Homo sapiens, UniProt Q6VAB6)
# T19 construct: purchased Thermo Fisher Scientific SelectScreen (plus Nanosyn / Reaction Biology for CDK/cyclin lines)
# How it was run: as §1
# [20] = target: T20, MAPK10 (JNK3) (Homo sapiens, UniProt P53779)
# T20 construct: purchased Thermo Fisher Scientific SelectScreen (plus Nanosyn / Reaction Biology for CDK/cyclin lines)
# How it was run: as §1
# [21] = target: T21, MATK (HYL) (Homo sapiens, UniProt P42679)
# T21 construct: purchased Thermo Fisher Scientific SelectScreen (plus Nanosyn / Reaction Biology for CDK/cyclin lines)
# T21 sequence (P42679 whole entry): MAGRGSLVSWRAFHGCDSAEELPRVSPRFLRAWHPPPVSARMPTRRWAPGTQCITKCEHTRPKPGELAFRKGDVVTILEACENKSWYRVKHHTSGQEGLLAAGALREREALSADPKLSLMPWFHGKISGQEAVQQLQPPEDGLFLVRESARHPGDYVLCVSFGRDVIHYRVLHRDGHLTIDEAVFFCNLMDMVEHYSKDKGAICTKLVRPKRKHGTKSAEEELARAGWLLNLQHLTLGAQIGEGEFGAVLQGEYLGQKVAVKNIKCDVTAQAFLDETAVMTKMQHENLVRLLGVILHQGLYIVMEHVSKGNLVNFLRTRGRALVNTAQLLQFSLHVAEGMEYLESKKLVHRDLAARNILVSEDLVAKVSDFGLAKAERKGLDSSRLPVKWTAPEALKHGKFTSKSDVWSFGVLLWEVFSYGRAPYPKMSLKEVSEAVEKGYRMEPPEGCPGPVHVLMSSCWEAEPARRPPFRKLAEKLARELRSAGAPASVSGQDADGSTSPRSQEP
# How it was run: as §1
# [22] = target: T22, MELK (Homo sapiens, UniProt Q14680)
# T22 construct: purchased Thermo Fisher Scientific SelectScreen (plus Nanosyn / Reaction Biology for CDK/cyclin lines)
# How it was run: as §1
# [23] = target: T23, MERTK (cMER) (Homo sapiens, UniProt Q12866)
# T23 construct: purchased Thermo Fisher Scientific SelectScreen (plus Nanosyn / Reaction Biology for CDK/cyclin lines)
# How it was run: as §1
# [24] = target: T24, NTRK2 (TRKB) (Homo sapiens, UniProt Q16620)
# T24 construct: purchased Thermo Fisher Scientific SelectScreen (plus Nanosyn / Reaction Biology for CDK/cyclin lines)
# T24 sequence (Q16620 32-822): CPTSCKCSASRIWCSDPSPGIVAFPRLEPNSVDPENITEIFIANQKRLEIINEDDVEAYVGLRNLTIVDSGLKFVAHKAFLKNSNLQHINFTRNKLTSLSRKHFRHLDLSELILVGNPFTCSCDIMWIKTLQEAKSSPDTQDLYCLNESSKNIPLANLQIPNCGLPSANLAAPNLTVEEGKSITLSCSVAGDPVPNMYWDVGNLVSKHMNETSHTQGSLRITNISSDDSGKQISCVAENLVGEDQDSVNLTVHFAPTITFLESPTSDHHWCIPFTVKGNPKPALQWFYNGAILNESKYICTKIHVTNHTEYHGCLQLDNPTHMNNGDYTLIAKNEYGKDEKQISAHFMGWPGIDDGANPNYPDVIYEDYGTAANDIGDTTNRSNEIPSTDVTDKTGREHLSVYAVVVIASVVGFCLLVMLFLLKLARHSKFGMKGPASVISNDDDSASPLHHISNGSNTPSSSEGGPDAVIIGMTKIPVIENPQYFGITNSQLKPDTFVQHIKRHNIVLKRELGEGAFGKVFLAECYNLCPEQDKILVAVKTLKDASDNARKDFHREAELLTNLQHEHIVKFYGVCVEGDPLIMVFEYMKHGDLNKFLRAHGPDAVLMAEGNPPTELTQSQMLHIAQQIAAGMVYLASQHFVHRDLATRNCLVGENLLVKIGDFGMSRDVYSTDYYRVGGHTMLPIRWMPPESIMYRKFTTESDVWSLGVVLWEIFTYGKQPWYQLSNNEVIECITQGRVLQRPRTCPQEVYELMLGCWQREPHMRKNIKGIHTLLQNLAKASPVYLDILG
# How it was run: as §1
# [25] = target: T25, PDK1 Direct (Homo sapiens, UniProt O15530)
# T25 construct: purchased Thermo Fisher Scientific SelectScreen (plus Nanosyn / Reaction Biology for CDK/cyclin lines)
# How it was run: as §1
# [26] = target: T26, PEAK1 (Homo sapiens, UniProt Q9H792)
# T26 construct: purchased Thermo Fisher Scientific SelectScreen (plus Nanosyn / Reaction Biology for CDK/cyclin lines)
# How it was run: as §1
# [27] = target: T27, PIM3 (Homo sapiens, UniProt Q86V86)
# T27 construct: purchased Thermo Fisher Scientific SelectScreen (plus Nanosyn / Reaction Biology for CDK/cyclin lines)
# How it was run: as §1
# [28] = target: T28, PLK1 (Homo sapiens, UniProt P53350)
# T28 construct: purchased Thermo Fisher Scientific SelectScreen (plus Nanosyn / Reaction Biology for CDK/cyclin lines)
# T28 sequence (P53350 whole entry): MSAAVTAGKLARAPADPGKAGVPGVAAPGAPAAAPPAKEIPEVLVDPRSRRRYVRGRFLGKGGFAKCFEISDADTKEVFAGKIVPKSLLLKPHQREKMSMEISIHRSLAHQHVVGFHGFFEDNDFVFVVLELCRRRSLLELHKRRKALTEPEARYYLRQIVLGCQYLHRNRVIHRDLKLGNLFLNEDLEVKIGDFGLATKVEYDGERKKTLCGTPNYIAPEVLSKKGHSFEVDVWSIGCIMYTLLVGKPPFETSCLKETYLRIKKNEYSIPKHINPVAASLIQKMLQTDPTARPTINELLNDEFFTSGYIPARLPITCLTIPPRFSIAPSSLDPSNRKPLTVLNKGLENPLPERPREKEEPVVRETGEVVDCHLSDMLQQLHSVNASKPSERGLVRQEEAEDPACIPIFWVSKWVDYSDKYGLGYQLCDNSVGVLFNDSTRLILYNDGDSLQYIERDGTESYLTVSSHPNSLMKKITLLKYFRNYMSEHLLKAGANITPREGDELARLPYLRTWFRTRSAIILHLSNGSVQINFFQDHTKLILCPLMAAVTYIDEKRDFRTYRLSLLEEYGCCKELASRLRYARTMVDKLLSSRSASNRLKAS
# How it was run: as §1
# [29] = target: T29, PRKCB2 (PKC beta II) (Homo sapiens, UniProt P05771)
# T29 construct: purchased Thermo Fisher Scientific SelectScreen (plus Nanosyn / Reaction Biology for CDK/cyclin lines)
# How it was run: as §1
# [30] = target: T30, PRKD2 (PKD2) (Homo sapiens, UniProt Q9BZL6)
# T30 construct: purchased Thermo Fisher Scientific SelectScreen (plus Nanosyn / Reaction Biology for CDK/cyclin lines)
# How it was run: as §1
# [31] = target: T31, RET V804L (Homo sapiens, UniProt P07949, V804L)
# T31 construct: purchased Thermo Fisher Scientific SelectScreen (plus Nanosyn / Reaction Biology for CDK/cyclin lines)
# How it was run: as §1
# [32] = target: T32, ROCK1 (Homo sapiens, UniProt Q13464)
# T32 construct: purchased Thermo Fisher Scientific SelectScreen (plus Nanosyn / Reaction Biology for CDK/cyclin lines)
# How it was run: as §1
# [33] = target: T33, SGK (SGK1) (Homo sapiens, UniProt O00141)
# T33 construct: purchased Thermo Fisher Scientific SelectScreen (plus Nanosyn / Reaction Biology for CDK/cyclin lines)
# How it was run: as §1
# [34] = target: T34, SGKL (SGK3) (Homo sapiens, UniProt Q96BR1)
# T34 construct: purchased Thermo Fisher Scientific SelectScreen (plus Nanosyn / Reaction Biology for CDK/cyclin lines)
# How it was run: as §1
# [35] = target: T35, SRC N1 (Homo sapiens, UniProt P12931)
# T35 construct: purchased Thermo Fisher Scientific SelectScreen (plus Nanosyn / Reaction Biology for CDK/cyclin lines)
# How it was run: as §1
# [36] = target: T36, STK22B (TSSK2) (Homo sapiens, UniProt Q96PF2)
# T36 construct: purchased Thermo Fisher Scientific SelectScreen (plus Nanosyn / Reaction Biology for CDK/cyclin lines)
# T36 sequence (Q96PF2 whole entry): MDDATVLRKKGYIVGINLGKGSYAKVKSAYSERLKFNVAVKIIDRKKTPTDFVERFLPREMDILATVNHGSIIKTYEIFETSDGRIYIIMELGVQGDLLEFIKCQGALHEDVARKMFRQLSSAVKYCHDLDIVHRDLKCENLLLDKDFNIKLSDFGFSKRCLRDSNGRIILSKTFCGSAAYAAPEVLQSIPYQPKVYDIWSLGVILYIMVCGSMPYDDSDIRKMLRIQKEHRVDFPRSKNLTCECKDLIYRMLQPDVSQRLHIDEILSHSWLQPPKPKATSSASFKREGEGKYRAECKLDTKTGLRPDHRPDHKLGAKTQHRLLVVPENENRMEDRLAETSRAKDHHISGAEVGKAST
# How it was run: as §1
# [37] = target: T37, TNK1 (Homo sapiens, UniProt Q13470)
# T37 construct: purchased Thermo Fisher Scientific SelectScreen (plus Nanosyn / Reaction Biology for CDK/cyclin lines)
# How it was run: as §1
smiles,measurement,setting,value
NS(=O)(=O)c1ccc(Nc2ncc3cc4n(c3n2)C2(CCCCC2)C(=O)NN4)cc1 [INX-315],inhibition at 0.1 µM,[1],3%
same,inhibition at 0.1 µM,[2],7%
same,inhibition at 0.1 µM,[3],-2%
same,inhibition at 0.1 µM,[4],6%
same,inhibition at 0.1 µM,[5],60%
same,inhibition at 0.1 µM,[6],10%
same,inhibition at 0.1 µM,[7],-4%
same,inhibition at 0.1 µM,[8],1%
same,inhibition at 0.1 µM,[9],-1%
same,inhibition at 0.1 µM,[10],5%
same,inhibition at 0.1 µM,[11],3%
same,inhibition at 0.1 µM,[12],31%
same,inhibition at 0.1 µM,[13],40%
same,inhibition at 0.1 µM,[14],31%
same,inhibition at 0.1 µM,[15],4%
same,inhibition at 0.1 µM,[16],5%
same,inhibition at 0.1 µM,[17],7%
same,inhibition at 0.1 µM,[18],27%
same,inhibition at 0.1 µM,[19],7%
same,inhibition at 0.1 µM,[20],11%
same,inhibition at 0.1 µM,[21],6%
same,inhibition at 0.1 µM,[22],10%
same,inhibition at 0.1 µM,[23],20%
same,inhibition at 0.1 µM,[24],52%
same,inhibition at 0.1 µM,[25],8%
same,inhibition at 0.1 µM,[26],10%
same,inhibition at 0.1 µM,[27],8%
same,inhibition at 0.1 µM,[28],4%
same,inhibition at 0.1 µM,[29],13%
same,inhibition at 0.1 µM,[30],5%
same,inhibition at 0.1 µM,[31],35%
same,inhibition at 0.1 µM,[32],5%
same,inhibition at 0.1 µM,[33],6%
same,inhibition at 0.1 µM,[34],6%
same,inhibition at 0.1 µM,[35],9%
same,inhibition at 0.1 µM,[36],-2%
same,inhibition at 0.1 µM,[37],14%
